Assay results published in US20090281054A1, “COMPOSITIONS AND METHODS COMPRISING CAPURAMYCIN ANALOGUES” (priority 2008, published 2009).
Read-outs that look alike come from different tables or passages of the source.

System: MTB
Assay type: cell-based, Mycobacterium tuberculosis

Question: `CCCCCCCCCC(=O)O[C@@H]1[C@H](OC)[C@@H]([C@@H](O[C@H]2OC(C(=O)N[C@H]3CCC[C@@H](C)NC3=O)=C[C@H](O)[C@@H]2O)C(N)=O)O[C@H]1n1ccc(=O)[nH]c1=O` [SQ641] was tested. Which Frequency of mutation did it give?
Answer: zero

Question: What about the Resistant colonies of the same molecule?
Answer: no colonies

Question: And the Frequency of mutation (second experiment, 8 μg/ml SQ641, 1 μg/ml RIF)?
Answer: zero
